Article PMC12867150, “A fungi-derived cyclic peptide enhances Th9-mediated antitumor immunity by targeting ZAP70 and SREBP1” (The Journal of Clinical Investigation, 2025)
“And” between values parts separate entries of the source, which are not always exact repeats. Equal values may be shown once.

Key:
human Th9 CAR T cells = assay: Granzyme B+ CAR Th9 cells from spleens after transfer (S9H-I); format: in vivo, mouse; details: for Proportion of GzmB⁺ cells in spleen: Supplemental Figure 9I
Description: For xenograft models, M-NSG mice were intravenously inoculated with 1 × 10^6 Raji-CD19 tumor cells. On day 5 after inoculation, 2 × 10^6 CD19-CAR Th9 cells were administered intravenously to evaluate in vivo therapeutic efficacy. Tumor progression and immune cell infiltration were subsequently monitored according to experimental endpoints.
Details regarding staining panels (human and mouse), reagents (including clones and catalog numbers), acquisition settings, compensation/controls, and analysis procedures are provided in Supplemental Methods. […]
Th9 CAR-T c e l l s (n = 3). (H and I) Flow-cytometric analysis of granzyme B⁺ CAR-
Th9 cells isolated from spleens after adoptive transfer, showing representative plots
(H) and quantification (I) (n = 5 mice per group). Statistical analysis was performed
using one-way ANOVA with Tukey’s post hoc test (A and B), or two-tailed unpaired
Student’s t-test (E–G, and I). Repeated data are presented as mean ± SEM. *p < 0.05,
(also on this page, place not known: TP cells ANOV A 30IL-9+ cells (%) Fato Fato Fato Fato A SSC GzmB CtrlEpA MFIofMitoTracker (×102) GF NormalizedATPlevel CtrlEpA 4MFI of Mito Tracker (×105) CtrlEpA0 GzmB+ cells (%) CD4 10 20 IL-9+ cells (%) Day60 10 20 30 Ctrl)

endogenous CD4+ T cells = assay: Flow cytometry of endogenous CD4+ T cells in spleen, LN, tumor (Figure 2D-E, S1F-H); format: in vivo, mouse; details: for Frequencies of endogenous CD4⁺ T cells in LN: Supplemental Figure 1G left; for Number of endogenous CD4⁺ T cells in LN: Supplemental Figure 1G right; for CD4 gate number: representative flow plot; for endogenous CD4 T cells (%) / number of endogenous CD4 T cells: individual mice, n = 4
Description: C57BL/6 mice were subcutaneously injected with 5 × 10^5 B16-OVA melanoma cells. Five days after tumor implantation, mice received an intravenous infusion of 2 × 10^6 in vitro–differentiated Th9 cells (cultured for 5 days), which were derived from OT-II CD45.1 donor mice, accompanied by 4 × 10^5 OVA peptide–pulsed DCs via the tail vein. To enhance T cell engraftment and facilitate lymphodepletion, a single intraperitoneal injection of cyclophosphamide (200 mg/kg, Sigma, catalog C0768) was administered 1 day prior to T cell transfer. Mice were euthanized at designated time points for the collection and analysis of spleens, tumor-draining lymph nodes, and tumor tissues.
Details regarding staining panels (human and mouse), reagents (including clones and catalog numbers), acquisition settings, compensation/controls, and analysis procedures are provided in Supplemental Methods.
BioLegend, Cat. No. 422301 or Mouse TruStain FcX™, BioLegend, Cat. No. 101319) for 10 minutes at 4°C. For surface marker detection, cells were stained with fluorochrome-conjugated monoclonal antibodies in 96-well V-bottom plates and incubated on ice for 30 minutes. After staining, cells were washed twice and resuspended in FACS buffer for analysis.
Prior to intracellular cytokine staining, cells were restimulated for 4 hours with PMA (Absin, Cat. No. abs9107), ionomycin (Sigma-Aldrich, Cat. No. I0634), and brefeldin A (MedChemExpress, Cat. No. HY-16592). For intracellular cytokine staining, cells were first surface-stained as described above, then fixed and permeabilized using the BD Cytofix/Cytoperm™ kit (BD Biosciences, Cat. No. 554714) according to the manufacturer ’s protocol. Intracellular proteins were stained with directly conjugated antibodies targeting IL-9, IL-17a, IL-4, IFN-γ, TNF-α, FOXP3, p-ZAP70, Perforin, and […]
Antibodies used for mouse samples included those against IL-9 (PE, clone RM9A4, Biolegend, Cat. No. 514104), IFN-γ (PE, clone XMG1.2, Biolegend, Cat. No.
Cat. No. 103138), CD4 (APC/Cy7, clone E-AB-F1353UJ, Elabscience, Cat. No.
AF18028), CD8α (PerCP/Cy5.5, clone E-AB-F1104UJ, Elabscience, Cat. No. […]
clone E-AB-F1187UH, Elabscience, Cat. No. AF19854), TNF-α (BV421, clone MP6-XT22, Biolegend, Cat. No. 506328), FOXP3 (PE, clone FJK-16s, eBioscience, Cat. No.
Perforin (APC, clone S16009A, Biolegend, Cat. No. 154303) and Granzyme B (APC, […]
clone QA16A02, Biolegend, Cat. No. 372203). […]
Figure S1. EpA enhances immune responses. […]
I) Representative flow-cytometric plots of endogenous CD4⁺ and CD8⁺ T cells in spleens (F), LNs (G), and tumors (H); frequencies and absolute numbers of endogenous CD4⁺ (G) and CD8⁺ (I) T cells in LNs are quantified. (J and K) […]
Statistical analysis was performed using two-way ANOVA with Tukey’s post hoc test (A), one-way ANOVA with Tukey’s post hoc test (B) or two-tailed unpaired Student’s t-test (D and G–M). ns, not significant. *p < 0.05, **p < 0.01, ****p < 0.0001.
(also on this page, place not known: Mouse weight (g) CtrlEpA CtrlEpA CtrlEpA0 I CD45.1+ T cells (%) CtrlEpA CD4+ T cells (%) CtrlEpA CtrlEpA CtrlEpA FSC CD8 CD8 FSC FSC FSC BNumber of CD45.1+ T cells (×103 per mgĎ Number of CD4+ T cells (×104 per mgĎ DC (%)NK cells (%) NK cells (%) DC (%) Number of DC (×103 per mg) Number of NK cells (×105) Number of NK cells (×103 per mg) Number of DC (×105) FSC FSC FSC CD8 CtrlEpA CtrlEpA CtrlEpA CD8+ T cells (%) Number of CD8+ T cells (×104 per mgĎ nsns ns nsns ns 40 IL-6 (pg/ml)) […]

[1] = tested on: mitochondria of Th9 cells; assay: Transmission electron microscopy of mitochondrial number and diameter (Figure 4J-K); format: cell-based, mouse
Description: Mitochondrial mass and membrane potential were assessed using MitoTracker™ Deep Red FM (Thermo Fisher Scientific, catalog M22426) and TMRM (tetramethylrhodamine methyl ester; Macklin, catalog T868125), respectively, following the manufacturers’ protocols. Cells were incubated with the respective dyes, washed, and subjected to flow cytometry or fluorescence microscopy analysis. For ultrastructural assessment, mitochondrial number and diameter were quantified from high-resolution transmission electron microscopy (TEM) images using ImageJ software.

anteiso-C15 Leu7 surfactin [EpA]
granzyme B levels in CAR T cells after transfer (human Th9 CAR T cells; result in words): elevated | Proportion of GzmB⁺ cells in spleen (human Th9 CAR T cells; replicate 1): 22.5 | Proportion of GzmB⁺ cells in spleen (human Th9 CAR T cells; replicate 2): 28.9 | Proportion of GzmB⁺ cells in spleen (human Th9 CAR T cells; replicate 3): 40.8 | Proportion of GzmB⁺ cells in spleen (human Th9 CAR T cells; replicate 4): 84.4 | Proportion of GzmB⁺ cells in spleen (human Th9 CAR T cells; replicate 5): 47.4 | granzyme B+ CAR Th9 gate number (human Th9 CAR T cells; spleens after transfer, representative flow plot, Figure S9H): 47.4 | Frequencies of endogenous CD4⁺ T cells in LN (endogenous CD4+ T cells; LN, replicate 1): 32.6 | Frequencies of endogenous CD4⁺ T cells in LN (endogenous CD4+ T cells; LN, replicate 2): 26.4 | Frequencies of endogenous CD4⁺ T cells in LN (endogenous CD4+ T cells; LN, replicate 3): 36 | Frequencies of endogenous CD4⁺ T cells in LN (endogenous CD4+ T cells; LN, replicate 4): 26 | Number of endogenous CD4⁺ T cells in LN (endogenous CD4+ T cells; LN, replicate 1): 43261 | Number of endogenous CD4⁺ T cells in LN (endogenous CD4+ T cells; LN, replicate 2): 37630 | Number of endogenous CD4⁺ T cells in LN (endogenous CD4+ T cells; LN, replicate 3): 15416 | Number of endogenous CD4⁺ T cells in LN (endogenous CD4+ T cells; LN, replicate 4): 15595.7 | CD4 gate number (endogenous CD4+ T cells; LN, Figure S1G): 36.0 | CD4 gate number (endogenous CD4+ T cells; Spleen, Figure S1F): 26.1 | CD4 gate number (endogenous CD4+ T cells; Tumor, Figure S1H): 15.2 | endogenous CD4+ T cell frequency and number (endogenous CD4+ T cells; spleens, lymph nodes, tumors, result in words): minimal changes | endogenous CD4 T cells (%) (endogenous CD4+ T cells; spleens): 30.3% and 32.9% and 35.5% and 26.1% | number of endogenous CD4 T cells (endogenous CD4+ T cells; spleens): 1093264 and 1018812 and 1081910 and 535955 | endogenous CD4 T cells (%) (endogenous CD4+ T cells; tumors): 15.2% and 16.6% and 24% and 21.6% | number of endogenous CD4 T cells (endogenous CD4+ T cells; tumors): 158 and 294 and 393 and 62 | Number of mitochonodrion/cell ([1]; Figure 4J, individual cells): 12 and 23 and 11 and 16 and 10 and 21 and 9 and 17 and 6 and 7 and 24 | number and diameter of mitochondria ([1]; result in words): increased number and diameter of mitochondria
